These results are taken from patent US20180134788A1, “Methods and Pharmaceutical Compositions (NTSR1 Inhibitors) for the Treatment of Hepatocellular Carcinomas” (INSERM (Institut National de la Sante et de la Recherche …, priority 2015, published 2018).

Test [1] deals with EGFR expression in PLC/PRF5 and HEP3B cells. Kind of test: EGFR immunocytochemistry labeling in HCC cell lines. It counts as cell-based. How it is done: (A) Typical immunocytochemistry labeling for NTSR1 (Top) and EGFR (Bottom) in PLC/RF5 and HEP 3B cells treated or not with 1 μM SB216763 or 5 μM SR4892 or both for 48 h. (B and C) Representative western blot analyses of Tyr 1173 phosphorylated EGFR, EGFR, and actin of HEP 3B and PLC/RF5 treated as indicate above.
It was previously shown that the NTS/NTSR1 complex potentiates EGF signaling in liver, colon, prostate, lung, and breast cancer. We investigated the possible relation between NTSR1 expression and EGFR expression and activation. […] Treatment with SR48692, a specific NTSR1 antagonist, decreased the expression of EGFR, whereas NTSR1 expression was not altered. When the combined treatment with SB216763 and SR48692 is used, the effect of SB216763 on EFGR expression is limited by the presence of the NTSR1 antagonist (FIG. 5A).

The subject of a further test is HEP 3B tumors. Kind of test: HEP 3B experimental tumor growth in mice. It counts as in vivo. The following applies: HEP 3B tumors, 1 mg/kg SR 48692 per os every day. How it is done: (§1) (A) Experimental tumors were generated from the HCC cancer cell line, HEP 3B and PLC/RF5 and the NTSR1-overexpressing subclones. Comparative growth curves of HEP 3B, HEP-R1a, PLC/RF5, PLC/R1 in 8, 7, 10 and 7 mice, respectively. Tumor volumes were measured twice a week. (B) Tumor weight at 42 days. (C and D) Experimental tumors were generated from HEP 3B or HEP-R1a in the different mice. When the tumor size reached 100 mm3, mice were randomly distributed in 2 groups. A control group force feed with H2O, or with 1 mg/kg SR 48692 every day. (E) Typical IHC performed on paraffin sections for NTS, NTSR1 EGFR and phosphorylated EGFR labelling, 200× magnification.
(§2) Experimental tumors were generated from HEP 3B (A) and HEP-R1a (B) in the same mice. Mice were treated per os with 75 mg/kg erlotinib every day for 22 days. Tumor size was measured every two days. Result shown is the ratio of tumor compare to day 1. (C) The doubling time was subsequently calculated using the following formula: doubling time=t*((LN(2))/(LN(VOL F/VOL I)), at day 22.
(§3) Experimental tumors were generated from HEP 3B (D) or HEP-R1a (E) in the different mice. When the tumor size reached 100 mm^3, mice were randomly distributed in 2 groups. A control group force feed with H2O, and the treated group, force feed every day with […] sorafenib. Result shown is the ratio of tumor compare to day 1. (F) Tumor weight at day 15.
(§4) To determine the contribution of NTS/NTSR1 complex on tumor progression, mice were implanted with HCC cell lines and NTSR1 overexpressing clones. For HEP3B cells the tumors were measurable 21 days after cells injection. In contrast, the tumor burden for both clones overexpressing NTSR1 was measurable at day 13. The growth rate at day 42 was 2.9 and 2.08 fold higher for HEP-R1a and PLC-R1a as compared to respective parental cells, respectively, (FIG. 7A). As shown in FIG. 7B the tumor weights were in correspondence with the tumor size 4.3 and 2.8 fold higher for HEP-R1a and PLC-R1a as compared to their respective parental cells, respectively. To confirm the contribution of NTS/NSTR1 complex in tumor growth, animals were treated with a specific NTSR1 antagonist, the SR 48692. When tumors reach 100 mm3, the groups were treated per os with H2O, or 1 mg/kg SR 48692, respectively. […] The final tumor size of HEP-R1a tumors treated with SR 48692 was 441.9±39.85 mm^3, and was very similar to the untreated HEP 3B tumors 516.3±139.72 mm^3.
As shown above, NTSR1 activation induced a sustained EGFR activation, which we believe, acts as EGFR driver mutation (FIG. 4). To explore this hypothesis, the HCC cell lines HEP 3B and HEP-R1a were xenografted on the same mice. The mice were randomly distributed in two groups based on the size of the HEP 3B tumors. Since HEP-R1a tumors grow faster than HEP 3B tumors, HEP 3B cells were injected a few days before HEP-R1a cells. In the control group, the average HEP3B tumor size was 168.2±38.1 mm3 and the HEP-R1a tumor size was 79.7±16.4 mm3 at day 1. The treated group carried HEP 3B tumors of 164.7±31.2 mm3 and HEP-R1a tumors of 87.2±19.13 mm3 at day 1. Mice were daily treated, per os, with 75 mg/kg erlotinib or H2O for 22 days. […] Over the period of the treatment, the doubling time of HEP-R1a tumors was 7.0±0.55 days and 10.1±1.1 (p=0.0016) for control and treated with erlotinib, respectively. For the HEP 3B tumors, the doubling time was similar 7.8±0.52 and 7.7±0.84 days for control and treated group respectively (FIG. 8 C). […]

A further test relates to HEP-R1a tumors. The test is described as follows: HEP-R1a experimental tumor growth in mice. The class given is in vivo. As for the experimental part:
as §1, §2, §3, §4
As shown above, NTSR1 activation induced a sustained EGFR activation, which we believe, acts as EGFR driver mutation (FIG. 4). To explore this hypothesis, the HCC cell lines HEP 3B and HEP-R1a were xenografted on the same mice. The mice were randomly distributed in two groups based on the size of the HEP 3B tumors. Since HEP-R1a tumors grow faster than HEP 3B tumors, HEP 3B cells were injected a few days before HEP-R1a cells. In the control group, the average HEP3B tumor size was 168.2±38.1 mm3 and the HEP-R1a tumor size was 79.7±16.4 mm3 at day 1. The treated group carried HEP 3B tumors of 164.7±31.2 mm3 and HEP-R1a tumors of 87.2±19.13 mm3 at day 1. Mice were daily treated, per os, with 75 mg/kg erlotinib or H2O for 22 days. […] Over the period of the treatment, the doubling time of HEP-R1a tumors was 7.0±0.55 days and 10.1±1.1 (p=0.0016) for control and treated with erlotinib, respectively. For the HEP 3B tumors, the doubling time was similar 7.8±0.52 and 7.7±0.84 days for control and treated group respectively (FIG. 8 C).
Sorafenib is a known multikinase inhibitor targeting Raf/MEK/ERK signaling at the level of Raf kinase, angiogenesis, VEGFR-2/-3, and PDGFR-β tyrosine kinase. Sorafenib is currently used to treat HCC with some success. In order to evaluate the autocrine NTS regulation on sorafenib responses, each HEP 3B or HEP-R1a cells were injected to four groups of mice. When tumors reach 100 mm3, the groups were treated per os with H2O, 30 mg/kg sorafenib for 15 days, respectively. […]

Consider `COc1cccc(OC)c1-c1cc(C(=O)NC2(C(=O)O)C3CC4CC(C3)CC2C4)nn1-c1ccnc2cc(Cl)ccc12` (centres unmarked) [SR48692], for which, in test [1] (PLC/PRF5 and HEP3B, 48 h, 1 μM SB216763 or 5 μM SR48692), the EGFR expression result is listed as “decreased”. Also, the “effect of SB216763 on EGFR expression in presence of the NTSR1 antagonist” value in test [1] (combined treatment 1 μM SB216763 and 5 μM SR48692, 48 h) was “limited”. The tumor growth rate result in the test on HEP 3B tumors is “no influence”; with HEP-R1a tumors (1 mg/kg SR 48692 per os every day), “inhibited by two fold”. Also, the final tumor size in the test on HEP-R1a tumors (1 mg/kg SR 48692 per os) is 441.9±39.85 mm^3.
